# According to patent US8350077B2 (VERTEX Closed Joint Stock Company, priority 2008, dated 2013):
# How the values were obtained:
# [1] = Stability of Creatine amides in human blood plasma (RP-HPLC peak areas, 37° C.)
# Experimental: The detection was carried out on the wave length 220 nm. The samples dosing on the column was carried out by the loop 20 μl.
# (§1) For the study of Creatine amides stability, 1 ml of water or blood plasma was added to 200 μl of aqueous solution of starting amide with a concentration of 2÷3 mg/ml then shaken; a probe volume of 200 μl was taken up immediately and analysis of an initial concentration of the Creatine amide was carried out. Further, the solution was placed into a vibro-thermostat at a temperature of 37° C., then aliquote 200 μl was taken up in 0.5, 1, and 3 hours of thermostatics. 20 μl 10% solution of trichloroacetic acid was added to the taken probe, and kept for 15 min at temperature (−)24° C., then centrifuged at 6000×g for 5 minutes for sedimentation of plasma proteins, supernatant was taken up and its analysis was carried out.
# (§2) For evaluation of samples' stability, peak areas of a corresponding compound at the beginning of experiment and at selected time intervals were compared (Tables 1, 2).
# [2] = dosages up to 30 g for a few days, per os; cited from earlier work
# [3] = Stability of Creatine amides in rat blood plasma (RP-HPLC peak areas, 37° C.)
# Experimental: Study of the Creatine derivatives stability in aqueous solution, as well as in human and rat blood plasma was carried out by the method of Reversed Phase HPLC using a chromatography system, known as Beckman System Gold™ (USA) in the following configuration: Programmable Solvent Module 126, Manual Injector Rheodyne 7725i, Programmable Detector Module 166, featured with the Beckman System Gold Chromatography Software™. The analysis was carried out on the column Luna 5μ C18(2) 100 Å 150×4.6 mm (Phenomenex, USA) with the precolumn Guard Cartridge C18 at the flow rate 1 ml/min in the linear gradient of acetonitrile: for analogue from the Example 1 from 5 to 25% of acetonitrile in 20 min (A: 0.1% of […]—H2O, B: 0.1% of H3PO4-acetonitrile), in case of substance from the Examples 2÷8: from 3 to 23% of acetonitrile in 20 minutes. The detection was carried out on the wave length 220 nm. The samples dosing on the column was carried out by the loop 20 μl.
# as §1, §2
# [4] = peak area relative to start, 37° C.
SMILES,"Stability in human blood plasma, 0 h [1, 4]","Stability in human blood plasma, 0 h ([1]; human, plasma)","Stability in human blood plasma, 0.5 h ([1]; human, plasma)","Stability in human blood plasma, 1 h ([1]; human, plasma)","Stability in human blood plasma, 3 h ([1]; human, plasma)","Stability in a rat blood plasma, 0 h ([3]; rat, plasma)","Stability in a rat blood plasma, 0.5 h ([3]; rat, plasma)","Stability in a rat blood plasma, 1 h ([3]; rat, plasma)","Stability in a rat blood plasma, 3 h ([3]; rat, plasma)",further results
"CN(CC(=O)OCc1ccccc1)C(=N)N [Creatine benzyl ester, reference compound]",100%,–,–,–,–,–,–,–,–,"Decrease of concentration in human blood plasma ([1]; during 0.75 hours): 53%; remaining at 0.75 h ([1]; human, blood plasma): 53%; remaining at 3 h ([1]; human, blood plasma): 46%"
CN(CC(=O)O)C(=N)N.O [Creatine monohydrate],–,–,–,–,–,–,–,–,–,Increase of the total Creatine content in a human's skeleton muscles [2]: more than 20%
"CC(=O)O.CCOC(=O)CCCNC(=O)CN(C)C(=N)N [Example 1, Creatinyl-γ-Aminobutyric Acid Ethyl Ester Acetate]",100%,–,–,–,–,–,–,–,–,"Stability in human blood plasma, 0.5 h [1, 4]: 99%; Stability in human blood plasma, 1 h [1, 4]: 103%; Stability in human blood plasma, 3 h [1, 4]: 104%; Stability in a rat blood plasma, 0 h [3, 4]: 100%; Stability in a rat blood plasma, 0.5 h [3, 4]: 96%; Stability in a rat blood plasma, 1 h [3, 4]: 98%; Stability in a rat blood plasma, 3 h [3, 4]: 99%"
"CN(CC(=O)N[C@@H](Cc1ccccc1)C(N)=O)C(=N)N.O [Example 2, Creatinyl-L-Phenylalanine Amide Hydrate]",–,100%,99%,99%,100%,100%,100%,97%,98%,–
"CC(=O)O.CN(CC(=O)N[C@@H](Cc1ccccc1)C(N)=O)C(=N)N [Example 3, Creatinyl-L-Phenylalanine Amide Acetate]",–,100%,100%,100%,100%,100%,96%,98%,99%,–
"CN(CC(=O)NCC(=O)OCc1ccccc1)C(=N)N.Cl [Example 4, Creatinyl-Glycine Benzyl Ester Hydrochloride]",–,100%,98%,100%,99%,100%,99%,99%,96%,–
"CCOC(=O)CNC(=O)[C@H](CCCNC(=N)N)NC(=O)[C@H](Cc1ccccc1)NC(=O)CN(C)C(=N)N [Example 7, Creatinyl-Phenylalanyl-Arginyl-Glycine Ethyl Ester Acetate]",–,100%,–,–,–,100%,–,–,–,"remaining at 0.5 h ([1]; human, plasma): 94%; remaining at 1 h ([1]; human, plasma): 90%; remaining at 3 h ([1]; human, plasma): 85%; remaining at 0.5 h ([3]; rat, plasma): 93%; remaining at 1 h ([3]; rat, plasma): 92%; remaining at 3 h ([3]; rat, plasma): 85%"
"CN(CC(=O)N[C@@H](Cc1ccccc1)C(=O)O)C(=N)N.Cl [Example 8, Creatinyl-Phenylalanine hydrochloride]",100%,–,–,–,–,–,–,–,–,"Stability in human blood plasma, 0.5 h [1, 4]: 99%; Stability in human blood plasma, 1 h [1, 4]: 98%; Stability in human blood plasma, 3 h [1, 4]: 97%; Stability in a rat blood plasma, 0 h [3, 4]: 100%; Stability in a rat blood plasma, 0.5 h [3, 4]: 98%; Stability in a rat blood plasma, 1 h [3, 4]: 98%; Stability in a rat blood plasma, 3 h [3, 4]: 95%"
